Measured values reported in patent US8362008B2 (The University Of Edinburgh, priority 2007, dated 2013).

Molecular target: T1, human 11β-HSD1 enzyme (Homo sapiens, UniProt P28845)
T1 construct: stably transfected with a construct containing the full-length gene coding for the human 11β-HSD1 enzyme; expressed in transfected cells; host or cells: HEK293 (HEK293/11β-HSD1 cells)
Assay: Cellular in vitro 11β-HSD1 enzyme inhibition assay (SPA, HEK293/11β-HSD1 cells)
Assay type: cell-based
Protocol: Cellular In Vitro 11β-HSD1 Enzyme Inhibition Assay
Compounds were assessed by a Scintillation Proximity Assay (SPA) performed according to the following protocol:
HEK293 cells were stably transfected with a construct containing the full-length gene coding for the human 11β-HSD1 enzyme to create HEK293/11β-HSD1 cells. Cells were routinely cultured in DMEM containing 10% calf foetal serum, 1% glutamine, and 1% penicillin and streptomycin. Prior to assay, cells were plated at 2×10^4 cells/well in 96-well poly-D-Lys coated flat-bottomed microplates and incubated in 5% CO2, 95% O2 at 37° C. for 24 hours. The media in each well was removed immediately before assay.
Compounds to be tested were dissolved in DMSO at 10 mM and serially diluted into water containing 10% DMSO. Diluted compounds at a volume of 10 μL were added to wells of a 96-well V-bottomed microplate. […] This solution (100 μL/well) was transferred to the plate containing the cells. The plate was then incubated in 5% CO2, 95% O2 at 37° C. for 2 hours.
Following this incubation, 50 μL of the assay solution was transferred to each well of a 96-well scintillation microplate. A mixture consisting of anti-mouse YSi SPA beads, pre-mixed with anti-cortisol antibody in assay buffer (50 mM Tris.HCl, pH 7.0; 300 mM NaCl; 1 mM EDTA, 5% glycerol) was prepared and 50 μL added to each well of the scintillation microplate. An adhesive strip was applied to the microplate and the plate gently shaken for at least 2 hours at room temperature, and then spun briefly on a low speed centrifuge. The plate was read on a scintillation counter suitable for 96-well microplates. For the calculation of percentage inhibition, a series of wells were added to the plate that represented the assay maximum and the assay minimum: one set that contained substrate without cells (mimimum) and another set that contained substrate and cells without any compound (maximum).
The calculation of median inhibitory concentration (IC50) values for the compounds was performed using GraphPad Prism® software. Dose-response curves for each compound were plotted as fractional inhibition and data fitted to the four parameter logistic equation.

[1] = HEK293, less than or equal to 1000 nM (1 μM)
[2] = HEK293, more than 1000 nM (1.0 μM) and less than or equal to 30 μM

T1 sequence (P28845 whole entry): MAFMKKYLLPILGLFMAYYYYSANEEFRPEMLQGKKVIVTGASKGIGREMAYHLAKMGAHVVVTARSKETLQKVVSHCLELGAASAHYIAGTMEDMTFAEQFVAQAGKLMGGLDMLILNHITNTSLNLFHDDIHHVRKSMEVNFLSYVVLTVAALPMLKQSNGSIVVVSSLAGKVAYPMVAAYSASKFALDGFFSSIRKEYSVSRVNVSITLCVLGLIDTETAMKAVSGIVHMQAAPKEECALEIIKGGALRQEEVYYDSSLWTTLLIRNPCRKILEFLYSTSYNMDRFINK

Compound | IC50 [1] | IC50 [2]
O=C(c1csc(COc2ccc(-n3ccnc3)cc2)c1)N1CCCCC1 [BB-003] | – | 1 to 30 µM
COCc1cc(C(=O)N2CCCCCC2)cs1 [BB-005] | – | 1 to 30 µM
O=C(c1csc(C2CCNCC2)c1)N1CCCCCC1c1ccccc1 (stereo not drawn) [CC-107] | – | 1 to 30 µM
CC1(C)CC2CC(C)(CN2C(=O)c2csc(C3CCCCC3)c2)C1 (stereo not drawn) [DD-005] | ≤ 1 µM | –
O=C(c1csc(C2CCNCC2)c1)N1CCN2CCC[C@H]2C1 [CC-041] | – | 1 to 30 µM
O=C(c1csc(C2=CCNCC2)c1)N1CCCC(F)(F)CC1 [CC-126] | ≤ 1 µM | –
O=C(c1csc(COc2ccc(-n3cncn3)cc2)c1)N1CCCCC1 [BB-004] | – | 1 to 30 µM
CC1(C)CC2CC(C)(CN2C(=O)c2cc(C3CCOCC3)sc2Cl)C1 (stereo not drawn) [CC-070] | ≤ 1 µM | –
CC1CCCCN1C(=O)c1csc(C2CCOCC2)c1 (stereo not drawn) [CC-002] | – | 1 to 30 µM
O=C(c1csc(C2=CCNCC2)c1)N1CCC[C@@H]2CCCC[C@@H]21 (relative stereo) [CC-046, cis-(octahydro-quinolin-1-yl)-[5-(1,2,3,6-tetrahydro-pyridin-4-yl)-thiophen-3-yl]-methanone] | ≤ 1 µM | –
CC1(C)CC2CC(C)(CN2C(=O)c2csc(C3CCNCC3)c2)C1 (stereo not drawn) [CC-072] | ≤ 1 µM | –
O=C(c1csc(CC(F)(F)F)c1)N1CCC[C@@H]2CCCC[C@@H]21 (relative stereo) [AA-012, cis-(Octahydro-quinolin-1-yl)-[5-(2,2,2-trifluoro-ethyl)-thiophen-3-yl]-methanone] | ≤ 1 µM | –
O=C(c1csc(C2CCNCC2)c1)N1CCCCC1c1ccccc1 (stereo not drawn) [CC-017, (2-Phenyl-piperidin-1-yl)-(5-piperidin-4-yl-thiophen-3-yl)methanone] | ≤ 1 µM | –
O=C(c1csc(C2CCCNC2)c1)N1CCCCCC1 (stereo not drawn) [CC-015, Azepan-1-yl-(5-piperidin-3-yl-thiophen-3-yl)-methanone] | – | 1 to 30 µM
Cc1ccccc1OCc1cc(C(=O)N2CCCCC2)cs1 [BB-002, Piperidin-1-yl-(5-o-tolyloxymethyl-thiophen-3-yl)-methanone] | ≤ 1 µM | –
CCc1cc(C(=O)N2CCCC(C)(C)CC2)cs1 [AA-019] | ≤ 1 µM | –
O=C(c1csc(C2=CCNCC2)c1)N1CCCCC1c1ccccc1 (stereo not drawn) [CC-123] | ≤ 1 µM | –
CC1(C)CCCN(C(=O)c2csc(C3CCN(C(=O)CO)CC3)c2)CC1 [CC-113] | ≤ 1 µM | –
CC1(C)CCCN(C(=O)c2csc(C3CCOCC3)c2)CC1 [CC-021] | ≤ 1 µM | –
N#CC1(c2cc(C(=O)N3CCC[C@@H]4CCCC[C@@H]43)cs2)CCOCC1 (relative stereo) [CC-127, cis-4-[4-(Octahydro-quinoline-1-carbonyl)-thiophen-2-yl]-tetrahydro-pyran-4-carbonitrile] | ≤ 1 µM | –
O=C(c1csc(C2CCNCC2)c1)N1CCC(F)(F)C2CCCCC21 (stereo not drawn) [CC-131] | – | 1 to 30 µM
CCc1cc(C(=O)N2CC3CC4CC(C3)CC2C4)cs1 [AA-015] | ≤ 1 µM | –
CC1(C)CCCCN(C(=O)c2csc(C3=CCNCC3)c2)C1 [CC-125] | – | 1 to 30 µM
O=C(c1csc(C2CCOCC2)c1)N1CCCCC1 [CC-001, Piperidin-1-yl-[5-(tetrahydro-pyran-4-yl)-thiophen-3-yl]-methanone] | – | 1 to 30 µM
O=C(c1csc(C2=CCNCC2)c1)N1CCCC2CCCCC21 (stereo not drawn) [CC-047] | ≤ 1 µM | –

Further lines, results first:

IC50 [1] | IC50 [2] | Compound
≤ 1 µM | – | O=C(N1CCCC1)N1CCC(c2cc(C(=O)N3CCCC4CCCCC43)cs2)CC1 (stereo not drawn) [CC-116]
– | 1 to 30 µM | COCCCC(=O)N1CCC(c2cc(C(=O)N3CCCC4CCCCC43)cs2)CC1 (stereo not drawn) [CC-085]
– | 1 to 30 µM | CC(C)S(=O)(=O)N1CCC(c2cc(C(=O)N3CCCC4CCCCC43)cs2)CC1 (stereo not drawn) [CC-104]
≤ 1 µM | – | CNC(=O)N1CCC(c2cc(C(=O)N3CCCCC3c3ccccc3)cs2)CC1 (stereo not drawn) [CC-132]
– | 1 to 30 µM | O=C(c1csc(C2CCN(CC(F)(F)F)CC2)c1)N1CCC[C@@H]2CCCC[C@@H]21 (relative stereo) [CC-172, cis-(Octahydro-quinolin-1-yl)-{5-[1-(2,2,2-trifluoro-ethyl)-piperidin-4-yl]-thiophen-3-yl}-methanone]
≤ 1 µM | – | O=C1CCCN1c1cc(C(=O)N2CCCC3CCCCC32)cs1 (stereo not drawn) [CC-049]
– | 1 to 30 µM | O=C(c1csc(C2CCN(c3ccccn3)CC2)c1)N1CCCC2CCCCC21 (stereo not drawn) [CC-120]
≤ 1 µM | – | NC(=O)N1CCC(c2cc(C(=O)N3CCC[C@@H]4CCCC[C@@H]43)cs2)CC1 (relative stereo) [CC-068, cis-4-[4-(Octahydro-quinoline-1-carbonyl)-thiophen-2-yl]-piperidine-1-carboxylic acid amide]
≤ 1 µM | – | O=C(CO)N1CCC(c2cc(C(=O)N3CCC[C@@H]4CCCC[C@@H]43)cs2)CC1 (relative stereo) [CC-053, cis-2-Hydroxy-1-{4-[4-(octahydro-quinoline-1-carbonyl)-thiophen-2-yl]-piperidin-1-yl}-ethanone]
– | 1 to 30 µM | CS(=O)(=O)NCCC(=O)N1CCC(c2cc(C(=O)N3CCCCC3c3ccccc3)cs2)CC1 (stereo not drawn) [CC-128]
– | 1 to 30 µM | O=C(CN1CCOCC1)N1CCC(c2cc(C(=O)N3CCCC4CCCCC43)cs2)CC1 (stereo not drawn) [CC-060]
– | 1 to 30 µM | O=C(c1csc(C2CCCNC2)c1)N1CCCC2CCCCC21 (stereo not drawn) [CC-043]
≤ 1 µM | – | CC(C)(C(N)=O)N1CCC(c2cc(C(=O)N3CCC[C@@H]4CCCC[C@@H]43)cs2)CC1 (relative stereo) [CC-158, cis-2-{4-[4-(Octahydro-quinoline-1-carbonyl)-thiophen-2-yl]-piperidin-1-yl}-isobutyramide]
– | 1 to 30 µM | CC(C)CS(=O)(=O)N1CCC(c2cc(C(=O)N3CCCC4CCCCC43)cs2)CC1 (stereo not drawn) [CC-105]
– | 1 to 30 µM | O=C(c1csc(C2CCN(CC(O)CO)CC2)c1)N1CCCC2CCCCC21 (stereo not drawn) [CC-153]
≤ 1 µM | – | CNC(=O)C(C)(C)N1CCC(c2cc(C(=O)N3CCCC4CCCCC43)cs2)CC1 (stereo not drawn) [CC-171]

IC50 [1] | IC50 [2] | Compound
≤ 1 µM | – | CC(C)(C(=O)N1CCCC1)N1CCC(c2cc(C(=O)N3CCCC4CCCCC43)cs2)CC1 (stereo not drawn) [CC-170]
– | 1 to 30 µM | O=C(CCn1ccnc1)N1CCC(c2cc(C(=O)N3CCCC4CCCCC43)cs2)CC1 (stereo not drawn) [CC-117]
≤ 1 µM | – | O=C(c1csc(C2CCNCC2)c1)N1CCCC2CCCCC21 (single isomer, unassigned) [CC-044, trans-(Octahydro-quinolin-1-yl)-(5-piperidin-4-yl-thiophen-3-yl)-methanone]
≤ 1 µM | – | O=C(Cc1ccccn1)N1CCC(c2cc(C(=O)N3CCCC4CCCCC43)cs2)CC1 (stereo not drawn) [CC-133]
≤ 1 µM | – | O=C(c1csc(C2CCOCC2)c1)N1CCC[C@@H]2CCCC[C@@H]21 (racemic) [CC-027, cis-(octahydro-quinolin-1-yl)-[5-(tetrahydro-pyran-4-yl)-thiophen-3-yl]-methanone]
≤ 1 µM | – | O=C(c1cccnc1)N1CCC(c2cc(C(=O)N3CCCC4CCCCC43)cs2)CC1 (stereo not drawn) [CC-103]
≤ 1 µM | – | O=C(c1ccno1)N1CCC(c2cc(C(=O)N3CCCC4CCCCC43)cs2)CC1 (stereo not drawn) [CC-051]
≤ 1 µM | – | O=C(NCCCO)N1CCC(c2cc(C(=O)N3CCCC4CCCCC43)cs2)CC1 (stereo not drawn) [CC-161]
≤ 1 µM | – | O=C(c1csc(C2CCNCC2)c1)N1CCCC2CCCCC21 (stereo not drawn) [CC-040]
≤ 1 µM | – | Cn1cncc1C(=O)N1CCC(c2cc(C(=O)N3CCCC4CCCCC43)cs2)CC1 (stereo not drawn) [CC-084]
≤ 1 µM | – | O=C(CO)N1CC=C(c2cc(C(=O)N3CCCC4CCCCC43)cs2)CC1 (stereo not drawn) [CC-090]
– | 1 to 30 µM | CNCC(=O)N1CCC(c2cc(C(=O)N3CCC[C@@H]4CCCC[C@@H]43)cs2)CC1 (relative stereo) [CC-055, cis-2-Methylamino-1-{4-[4-(octahydro-quinoline-1-carbonyl)-thiophen-2-yl]-piperidin-1-yl}-ethanone]
– | 1 to 30 µM | O=C1CCCN1CCCN1CCC(c2cc(C(=O)N3CCCC4CCCCC43)cs2)CC1 (stereo not drawn) [CC-156, cis-{1-(3-{4-[4-(Octahydro-quinoline-1-carbonyl)-thiophen-2-yl]-piperidin-1-yl}-propyl)-pyrrolidin-2-one]
– | 1 to 30 µM | Cc1cc(C(=O)N2CCC(c3cc(C(=O)N4CCCC5CCCCC54)cs3)CC2)no1 (stereo not drawn) [CC-109]
– | 1 to 30 µM | CNCC(=O)N1CCC(c2cc(C(=O)N3CCCC4CCCCC43)cs2)CC1 (stereo not drawn) [CC-056]
– | 1 to 30 µM | CC(=O)N1CCC(c2cc(C(=O)N3CCCCC3c3ccccc3)cs2)CC1 (stereo not drawn) [CC-098]
